# Laboratory results published in patent US9603829B2, “HSP90 inhibitors with modified toxicity” (THE REGENTS OF THE UNIVERSITY OF COLORADO, a body corporate, priority 2011, dated 2017).
# Like-named read-outs stand apart in the source and are kept apart here.
# Experiments:
# [1] = test system: SHSY-5Y cells; assay: MTT growth inhibition assay in SHSY-5Y dopaminergic cells; type: cell-based, human; details: read-out: SHSY-5Y IC50
# Experimental: The 19-substituted benzoquinone ansamycins were also tested in vitro for their ability to reduce the toxicity of BQAs to SH-SY5Y cells a dopaminergic model system of relevance to neurodegenerative disease. Referring to FIG. 9, toxicity of BQAs in SH-SY-5Y cells was measured using trypan blue exclusion (panel A), MTT growth inhibition assay (panel B) and annexin V/PI staining for apoptosis (panel C). Cells in A and C were treated with BQAs (5 μM) for 16 h; cells in B were treated with BQAs for 4 h then allowed to grow in drug-free medium for 72 h. […] The combination of these two properties are likely to be important to the neuroprotective properties of the 19-substituted BQAs.
# Growth inhibition assays (MTT) were conducted in human SHSY-5Y cells following a 4 hr treatment with GA or 19Me-GA. Cell were allowed to grow for 72 hrs following drug treatment. The 19-methyl substituted compounds in all series were minimally toxic (see FIG. 12 for data with geldanamycin, MTT assay, results are expressed as the mean±SD, n=3).
# [2] = test system: MDA468/NQ16 breast cancer cells; assay: MTT growth inhibition in isogenic MDA468/NQ16 and MDA468 cells; type: cell-based, human; details: NQO1-rich vs NQO1-null isogenic cells
# Experimental: The 19-substituted benzoquinone ansamycins were also tested in vitro for their ability to inhibit growth similar to DMAG in human breast cancer cells (FIG. 10). MDA468/NQ16 breast cancer cells were treated with 19-substituted DMAG analogs for 4 hours, after which drug-containing media was removed and cells were allowed to grow for an additional 72 h. Cell viability was determined using the MTT assay.
# (§1) The ability of 19-substituted BQAs to induce growth inhibition was measured by MTT in isogenic MDA468 (null NQO1) and MDA468/NQ16 (high NQO1) cells. […] Biomarkers of Hsp90 inhibition (Raf-1, AKT degradation and Hsp70 induction) were more pronounced in MDA468/NQ16 cells compared to MDA468 cells following treatment with 19-substituted DMAG analogs.
# [3] = test system: Hsp90 (Raf-1, AKT degradation and Hsp70 induction); assay: Biomarkers of Hsp90 inhibition in MDA468/NQ16 cells; type: cell-based, human
# Experimental: as §1
# [4] = Phase I / phase 1 clinical trials; cited from earlier work
# [5] = Glutathione conjugation of benzoquinone ansamycins (HPLC, LC-MS); type: in vitro ADME; details: 50 μM BA, pH 7.4, room temperature
# Experimental: BA-GSH conjugate formation was analyzed by HPLC at 270 nm and further confirmed by LC-MS.
# [6] = test system: MiaPaCa2 human pancreatic cancer cells; assay: MTT growth inhibition in MiaPaCa2 cells; type: cell-based; details: 4 hr treatment, then 72 h growth, MTT, read-out: IC50 MiaPaCa2
# Experimental: (§2) The inventors also examined the ability of 19 BQAs to inhibit the growth of human pancreatic cancer cell lines (FIG. 16). For growth inhibition studies (MTT) cells were treated with drugs for 4 hr and then allowed to grow for 72 h. For biomarker studies MiaPaCa2 cells were treated with DMAG analogs (5 μM) for 24 hr. 19 BQAs inhibit the growth of human pancreatic cancer cell lines (FIG. 16A, 16B) and induce biomarkers of Hsp90 inhibition (FIG. 16C) using isogenic Panc-1 (NQO1 null) and Panc-1/C5 (NQO1 expressing) cell lines.
# [7] = test system: primary mouse hepatocytes; assay: Hepatotoxicity in primary mouse hepatocytes (MTT); type: cell-based; details: 4 hr, confirmed by Trypan Blue and AST leakage
# Experimental: The inventors next tested the effect of 19-substitution of BQAs on hepatotoxicity in isolated hepatocyte systems. Isolated primary mouse hepatocytes were grown on coated 96-well plates and exposed to BQAs for 4 h after which their survival was determined using the MTT assay.
# As described above, a major obstacle in the development of BQA as drugs has been their ability to induce hepatotoxicity in preclinical studies. […] Toxicity was measured using MTT assay and confirmed using Trypan Blue and AST leakage. The data shown in FIG. 19 were generated using MTT analysis but similar readouts were obtained using either trypan blue exclusion or leakage of AST from hepatocytes.
# [8] = test system: BT474 human breast cancer cells; assay: MTT growth inhibition in BT474 cells; type: cell-based; details: BT474, 4 hr treatment, MTT 72 h later
# Experimental: (§3) The inventors extended the studies with 19-substituted DMAG analogs to include the Her2^+ human breast cancer cell line BT474 (FIG. 15). Growth inhibition (FIG. 15, left panel) was measured in BT474 cells following treatment with analogs for 4 hr. Growth inhibition (MTT) was performed 72 h following drug treatments. Biomarkers of Hsp90 inhibition, Raf-1, AKT, CDK4 and Her2 degradation as well as Hsp70 induction were measured by immunoblot analysis in human BT474 breast cancer cells following treatment with 19-substituted DMAG analogs (5 μM) for 24 hr ([…], left panel).
# [9] = test system: Hsp90 (Raf-1, AKT, CDK4, Her2 degradation, Hsp70 induction); assay: Immunoblot biomarkers of Hsp90 inhibition in BT474 cells; type: cell-based, human
# Experimental: as §3
# [10] = test system: human pancreatic cancer cell lines (Panc-1, Panc-1/C5); assay: MTT growth inhibition in human pancreatic cancer cell lines; type: cell-based; details: human pancreatic cancer cell lines, 4 hr treatment, 72 h growth, MTT (FIG. 16A)
# Experimental: as §2
# [11] = test system: Hsp90; assay: Biomarkers of Hsp90 inhibition in MiaPaCa2 cells; type: cell-based, human; details: 5 μM, 24 hr (FIG. 16C)
# Experimental: as §2
# [12] = test system: p23/Hsp90 interaction; assay: Immunoprecipitation of p23 and Hsp90 in BT474 cells; type: cell-based, human; details: 5 μM, 24 hr
# Experimental: Forward and reverse immunoprecipitation studies were performed in BT474 cells treated with DMAG analogs (5 μM) for 24 hr.
# [13] = test system: cdc37/Hsp90 interaction; assay: Immunoprecipitation of cdc37 with Hsp90 in BT474 and MDA468/NQ16 cells; type: cell-based, human; details: 5 μM, 24 hr
# Experimental: Similarly, the association of cdc37 with hsp90 was examined in BT474 cells and MDA468/NQ16 cells by immunoprecipitation following treated with analogs (5 μM) for 24 hr. […] This finding is consistent with X ray data using purified Hsp90 showing that the larger 19-phenyl substituent causes greater conformational change in the Hsp90 structure than smaller 19-substituents (not shown). This also correlates with the differential effect of 19-phenyl and 19-methyl DMAG on clients chaperoned by cdc37 to Hsp90 which include Raf1, Akt, cdc2 and cdk4 (FIGS. 8,9,10).
# [14] = 4 hr treatment, then 72 hrs growth, MTT
# [15] = Homo sapiens, SH-SY5Y, 4 hr treatment, then 72 hrs growth, MTT
smiles,measurement,setting,value
"C=CCNC1=C2C[C@@H](C)C[C@H](OC)[C@H](O)[C@@H](C)/C=C(\C)[C@H](OC(N)=O)[C@@H](OC)/C=C\C=C(/C)C(=O)NC(=CC1=O)C2=O [17AAG, 17-demethoxy-17-(2-propenylamino)-geldanamycin, reference compound]",IC50,[1]; [14],16.2 µM
same,decrease in IC50 in MDA468/NQ16 cells compared to MDA468 cells,[2],greater than 66 fold
same,effect on markers of Hsp90 inhibition (Hsp70 induction and Raf-1 degradation) in MDA468/NQ16 compared to MDA468 cells,[3],greater effect on markers of Hsp90 inhibition
same,hepatotoxicity / toxicity in clinical trials,[4],dose-limiting toxicity
"CO[C@H]1/C=C\C=C(/C)C(=O)NC2=CC(=O)C(NCCN3CCCC3)=C(C[C@@H](C)C[C@H](OC)[C@H](O)[C@@H](C)/C=C(\C)[C@@H]1OC(N)=O)C2=O [17AEP-GA, 17-demethoxy-17-[[2-(pyrrolidin-1-yl)ethyl]amino]-geldanamycin]",fraction conjugated with glutathione,"[5]; 5 mM glutathione, within 10 h",about 90%
"C=CCNC1=C2C[C@@H](C)C[C@H](OC)[C@H](O)[C@@H](C)/C=C(\C)[C@H](OC(N)=O)[C@@H](OC)/C=C\C=C(/C)C(=O)NC(=C(C)C1=O)C2=O [19Me-17AAG, (4E,6Z,8S,9S,10E,12S,13R,14S,16R)-19-(Allylamino)-13-hydroxy-8,14-dimethoxy-4,10,12,16,21-pentamethyl-3,20,22-trioxo-2-azabicyclo[16.3.1]docosa-1(21),4,6,10,18-pentaen-9-yl carbamate]",IC50,"[1]; Homo sapiens, SH-SY5Y",> 20 µM
"CO[C@H]1/C=C\C=C(/C)C(=O)NC2=C(C)C(=O)C(NCCN(C)C)=C(C[C@@H](C)C[C@H](OC)[C@H](O)[C@@H](C)/C=C(\C)[C@@H]1OC(N)=O)C2=O [19Me-DMAG, (4E,6Z,8S,9S,10E,12S,13R,14S,16R)-19-(2-(Dimethylamino)ethylamino)-13-hydroxy-8,14-dimethoxy-4,10,12,16,21-pentamethyl-3,20,22-trioxo-2-azabicyclo[16.3.1]docosa-1(21),4,6,10,18-pentaen-9-yl carbamate]",IC50,[1]; [15],> 20 µM
same,IC50,"[6]; Homo sapiens, MIA PaCa-2",35.8 ± 5.5 µM
same,hepatotoxicity,[7],no toxicity was observed
same,growth inhibition,[8],no growth inhibition could be observed
same,Hsp70 induction,"[9]; BT474, 5 μM, 24 hr, immunoblot",robust Hsp70 response
same,"effects on Hsp90 client proteins (Raf-1, AKT, Her2, CDK4)","[9]; BT474, 5 μM, 24 hr, immunoblot",diminished effects on Hsp90 client proteins
same,"effects on clients chaperoned by cdc37 to Hsp90 (Raf1, Akt, cdc2, cdk4)",[9]; cell line not given,had little effect
same,Hsp70 induction,[3]; MDA468/NQ16 (high NQO1) cells,equivalent Hsp70 response to 19-phenyl DMAG
same,Raf-1 and AKT degradation,[3]; MDA468/NQ16 (high NQO1) cells,much less pronounced effect on Hsp90 Raf1 and Akt
same,growth inhibitory activity,[10],little effect
same,induction of biomarkers of Hsp90 inhibition,[11],little effect
same,interaction of p23 and Hsp90,[12],disrupted the interaction of p23 and Hsp90
same,interaction of cdc37 with Hsp90,[13],had little effect
"COC1=C2C[C@@H](C)C[C@H](OC)[C@H](O)[C@@H](C)/C=C(\C)[C@H](OC(N)=O)[C@@H](OC)/C=C\C=C(/C)C(=O)NC(=C(C)C1=O)C2=O [19Me-GA, (4E,6Z,8S,9S,10E,12S,13R,14S,16R)-13-Hydroxy-8,14,19-trimethoxy-,10,12,16,21-pentamethyl-3,20,22-trioxo-2-azabicyclo[16.3.1]docosa-1(21),4,6,10,18-pentaen-9-yl carbamate]",IC50,"[1]; Homo sapiens, SH-SY5Y",> 10 µM
"C=CCNC1=C2C[C@@H](C)C[C@H](OC)[C@H](O)[C@@H](C)/C=C(\C)[C@H](OC(N)=O)[C@@H](OC)/C=C\C=C(/C)C(=O)NC(=C(c3ccccc3)C1=O)C2=O [19Ph-17AAG, (4E,6Z,8S,9S,10E,12S,13R,14S,16R)-19-(Allylamino)-13-hydroxy-8,14-dimethoxy-4,10,12,16-tetramethyl-3,20,22-trioxo-21-phenyl-2-azabicyclo[16.3.1]docosa-1(21),4,6,10,18-pentaen-9-yl carbamate]",IC50,"[1]; Homo sapiens, SH-SY5Y",> 20 µM
"CO[C@H]1/C=C\C=C(/C)C(=O)NC2=CC(=O)C(NCCN(C)C)=C(C[C@@H](C)C[C@H](OC)[C@H](O)[C@@H](C)/C=C(\C)[C@@H]1OC(N)=O)C2=O [DMAG, 17-demethoxy-17-[[2-(dimethylamino)ethyl]amino]-geldanamycin, reference compound]",IC50,[1]; [14],9.4 µM
same,IC50,[6],0.13 ± 0.01 µM
same,17-DMAG-SG conjugate formed,"[5]; 5 mM reduced glutathione, within 4 h",approximately 47 μM
same,hepatotoxicity,[7],significant hepatotoxicity
same,hepatotoxicity / toxicity in clinical trials,[4],significant toxicities
"COC1=C2C[C@@H](C)C[C@H](OC)[C@H](O)[C@@H](C)/C=C(\C)[C@H](OC(N)=O)[C@@H](OC)/C=C\C=C(/C)C(=O)NC(=CC1=O)C2=O [GA, geldanamycin, reference compound]",IC50,[1]; [15],0.133 µM
same,hepatotoxicity / toxicity in clinical trials,[4],unacceptable hepatotoxicity
